Data reported in PubChem BioAssay AID248 (DTP/NCI, 2004).
Toxic doses and inconclusive results are not listed. No stated cut-off is given here; in the data, active means T/C of 150% or more; inactive means T/C below 125%.

Test system: L1210 leukemia ip in BDF1 mice, survival T/C
Assay: NCI In Vivo Anticancer Drug Screen. Data for tumor model L1210 Leukemia (intraperitoneal) in B6D2F1 (BDF1) mice
Conditions: higher = longer survival
Method in brief: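 Tumor cells were implanted, animals were treated, and survival was followed. The result divides the treated measurement by the vehicle-control measurement.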

[1] = endpoint: mean survival time, dose: 12.5 mg/kg/injection, schedule: Q01DX009 (ip), vehicle: saline
[2] = endpoint: mean survival time, dose: 25.0 mg/kg/injection, schedule: Q01DX009 (ip), vehicle: saline
[3] = endpoint: mean survival time, dose: 50.0 mg/kg/injection, schedule: Q01DX009 (ip), vehicle: saline
[4] = endpoint: mean survival time, dose: 100.0 mg/kg/injection, schedule: Q01DX009 (ip), vehicle: saline
[5] = endpoint: mean survival time, dose: 12.5 mg/kg/injection, schedule: Q01DX009 (ip), vehicle: Klucel (hydroxypropylcellulose) (HPC)
[6] = endpoint: mean survival time, dose: 25.0 mg/kg/injection, schedule: Q01DX009 (ip), vehicle: Klucel (hydroxypropylcellulose) (HPC)
[7] = endpoint: mean survival time, dose: 50.0 mg/kg/injection, schedule: Q01DX009 (ip), vehicle: Klucel (hydroxypropylcellulose) (HPC)

Measured: T/C

COc1cc(N(CCCl)CCCl)c(OC)cc1C=Nc1ccccc1C(=O)O
inactive: endpoint: mean survival time, dose: 2.6 mg/kg/injection, schedule: Q01DX009 (ip), vehicle: carboxymethylcellulose (CMC) 108 % of control | endpoint: mean survival time, dose: 4.4 mg/kg/injection, schedule: Q01DX009 (ip), vehicle: carboxymethylcellulose (CMC) 116 % of control | endpoint: mean survival time, dose: 5.5 mg/kg/injection, schedule: Q01DX001 (ip), vehicle: Klucel (hydroxypropylcellulose) (HPC) 109 % of control | endpoint: mean survival time, dose: 6.6 mg/kg/injection, schedule: Q01DX009 (ip), vehicle: carboxymethylcellulose (CMC) 123 % of control | endpoint: mean survival time, dose: 10.0 mg/kg/injection, schedule: Q01DX009 (ip), vehicle: carboxymethylcellulose (CMC) 123 % of control | endpoint: mean survival time, dose: 11.0 mg/kg/injection, schedule: Q01DX001 (ip), vehicle: Klucel (hydroxypropylcellulose) (HPC) 111 % of control | endpoint: mean survival time, dose: 19.0 mg/kg/injection, schedule: Q01DX001 (ip), vehicle: carboxymethylcellulose (CMC) 117 % of control | endpoint: mean survival time, dose: 22.0 mg/kg/injection, schedule: Q01DX001 (ip), vehicle: Klucel (hydroxypropylcellulose) (HPC) 117 % of control | endpoint: mean survival time, dose: 29.0 mg/kg/injection, schedule: Q01DX001 (ip), vehicle: carboxymethylcellulose (CMC) 118 % of control

C[Se](=O)O
inactive: endpoint: mean survival time, dose: 3.13 mg/kg/injection, schedule: Q01DX001 (ip), vehicle: saline 94 % of control | endpoint: mean survival time, dose: 6.25 mg/kg/injection, schedule: Q01DX001 (ip), vehicle: saline 91 % of control | endpoint: mean survival time, dose: 12.5 mg/kg/injection, schedule: Q01DX001 (ip), vehicle: saline 88 % of control

CCCC(=O)Nc1ncnc2c1ncn2C1OC2COP(=O)(O)OC2C1OC(=O)CCC (stereo unspecified)
inactive: [1] 105 % of control | [2] 104 % of control | [3] 102 % of control | [4] 102 % of control | endpoint: mean survival time, dose: 200.0 mg/kg/injection, schedule: Q01DX009 (ip), vehicle: saline 100 % of control | endpoint: mean survival time, dose: 400.0 mg/kg/injection, schedule: Q01DX009 (ip), vehicle: saline 104 % of control | endpoint: median survival time, dose: 25.0 mg/kg/injection, schedule: Q01DX009 (ip), vehicle: saline 100 % of control | endpoint: median survival time, dose: 50.0 mg/kg/injection, schedule: Q01DX001 (ip), vehicle: saline 100 % of control | endpoint: median survival time, dose: 50.0 mg/kg/injection, schedule: Q01DX009 (ip), vehicle: saline 100 % of control | endpoint: median survival time, dose: 100.0 mg/kg/injection, schedule: Q01DX001 (ip), vehicle: saline 100 % of control | endpoint: median survival time, dose: 100.0 mg/kg/injection, schedule: Q01DX009 (ip), vehicle: saline 100 % of control | endpoint: median survival time, dose: 200.0 mg/kg/injection, schedule: Q01DX001 (ip), vehicle: saline 100 % of control | endpoint: median survival time, dose: 200.0 mg/kg/injection, schedule: Q01DX009 (ip), vehicle: saline 100 % of control | endpoint: median survival time, dose: 400.0 mg/kg/injection, schedule: Q01DX001 (ip), vehicle: saline 100 % of control | endpoint: median survival time, dose: 400.0 mg/kg/injection, schedule: Q01DX009 (ip), vehicle: saline 100 % of control

OC(CCN1CCCCC1)(c1ccccc1)C1CC2C=CC1C2 (stereo unspecified)
inactive: endpoint: mean survival time, dose: 6.25 mg/kg/injection, schedule: Q01DX009 (ip), vehicle: Klucel (hydroxypropylcellulose) (HPC) 106 % of control | [5] 105 % of control | [6] 100 % of control | endpoint: mean survival time, dose: 25.0 mg/kg/injection, schedule: Q04DX003 (ip), vehicle: Klucel (hydroxypropylcellulose) (HPC) 106 % of control | [7] 105 % of control | endpoint: mean survival time, dose: 50.0 mg/kg/injection, schedule: Q04DX003 (ip), vehicle: Klucel (hydroxypropylcellulose) (HPC) 97 % of control | endpoint: mean survival time, dose: 100.0 mg/kg/injection, schedule: Q01DX009 (ip), vehicle: Klucel (hydroxypropylcellulose) (HPC) 103 % of control | endpoint: mean survival time, dose: 100.0 mg/kg/injection, schedule: Q04DX003 (ip), vehicle: Klucel (hydroxypropylcellulose) (HPC) 95 % of control

CCN(CC)CCC(C#N)(CC=C(C)C)c1cccc2ccccc12 (stereo unspecified)
inactive: [5] 100 % of control | [6] 110 % of control | [7] 97 % of control

O=C(O)NNC(=O)NO
inactive: endpoint: mean survival time, dose: 100.0 mg/kg/injection, schedule: Q01DX001 (ip), vehicle: saline with Tween-80 94 % of control | endpoint: mean survival time, dose: 200.0 mg/kg/injection, schedule: Q01DX001 (ip), vehicle: saline with Tween-80 94 % of control | endpoint: mean survival time, dose: 400.0 mg/kg/injection, schedule: Q01DX001 (ip), vehicle: saline with Tween-80 92 % of control

N#C/C(=C\c1ccc(-c2ccccc2)cc1)c1ccc([N+](=O)[O-])cc1
inactive: endpoint: mean survival time, dose: 12.5 mg/kg/injection, schedule: Q01DX009 (ip), vehicle: saline with Tween-80 90 % of control | endpoint: mean survival time, dose: 12.5 mg/kg/injection, schedule: Q04DX003 (ip), vehicle: saline with Tween-80 95 % of control | endpoint: mean survival time, dose: 25.0 mg/kg/injection, schedule: Q01DX009 (ip), vehicle: saline with Tween-80 88 % of control | endpoint: mean survival time, dose: 25.0 mg/kg/injection, schedule: Q04DX003 (ip), vehicle: saline with Tween-80 93 % of control | endpoint: mean survival time, dose: 50.0 mg/kg/injection, schedule: Q04DX003 (ip), vehicle: saline with Tween-80 88 % of control

O=COCC(O)COC=O
inactive: [1] 101 % of control | [2] 104 % of control | [3] 87 % of control | [4] 101 % of control | endpoint: mean survival time, dose: 100.0 mg/kg/injection, schedule: Q04DX003 (ip), vehicle: saline 95 % of control | endpoint: mean survival time, dose: 200.0 mg/kg/injection, schedule: Q04DX003 (ip), vehicle: saline 90 % of control | endpoint: mean survival time, dose: 400.0 mg/kg/injection, schedule: Q04DX003 (ip), vehicle: saline 97 % of control

CCCCCCc1cc2c(cc1CCCC)CCC2
inactive: endpoint: mean survival time, dose: 50.0 mg/kg/injection, schedule: Q01DX001 (ip), vehicle: saline 95 % of control | endpoint: mean survival time, dose: 100.0 mg/kg/injection, schedule: Q01DX001 (ip), vehicle: saline 101 % of control | endpoint: mean survival time, dose: 200.0 mg/kg/injection, schedule: Q01DX001 (ip), vehicle: saline 98 % of control | endpoint: mean survival time, dose: 400.0 mg/kg/injection, schedule: Q01DX001 (ip), vehicle: saline 116 % of control

O=C(C[n+]1ccc2ccccc2c1)c1ccccc1
inactive: [1] 98 % of control | [2] 104 % of control | [3] 101 % of control | endpoint: mean survival time, dose: 50.0 mg/kg/injection, schedule: Q04DX003 (ip), vehicle: saline 97 % of control

NC1CCCCC1.[I][Pb]([I])([I])[I]
inactive: endpoint: mean survival time, dose: 100.0 mg/kg/injection, schedule: Q04DX003 (ip), vehicle: saline with Tween-80 106 % of control | endpoint: mean survival time, dose: 200.0 mg/kg/injection, schedule: Q04DX003 (ip), vehicle: saline with Tween-80 95 % of control | endpoint: mean survival time, dose: 400.0 mg/kg/injection, schedule: Q04DX003 (ip), vehicle: saline with Tween-80 96 % of control

CCCCCCCCCC1OOC1(C)C (stereo unspecified)
inactive: endpoint: mean survival time, dose: 50.0 mg/kg/injection, schedule: Q01DX001 (ip), vehicle: water 97 % of control | endpoint: mean survival time, dose: 100.0 mg/kg/injection, schedule: Q01DX001 (ip), vehicle: water 93 % of control | endpoint: mean survival time, dose: 200.0 mg/kg/injection, schedule: Q01DX001 (ip), vehicle: water 93 % of control

CCOc1ccc(Br)cc1/C=N\NC(=O)c1ccccc1N(C)C
inactive: endpoint: mean survival time, dose: 100.0 mg/kg/injection, schedule: Q04DX002 (ip), vehicle: gum acacia 90 % of control | endpoint: mean survival time, dose: 200.0 mg/kg/injection, schedule: Q04DX002 (ip), vehicle: gum acacia 100 % of control | endpoint: mean survival time, dose: 400.0 mg/kg/injection, schedule: Q04DX002 (ip), vehicle: gum acacia 90 % of control

CC1(C(=O)O)CC12c1ccccc1-c1ccccc12 (stereo unspecified)
inactive: endpoint: mean survival time, dose: 100.0 mg/kg/injection, schedule: Q01DX001 (ip), vehicle: acetone 103 % of control | endpoint: mean survival time, dose: 200.0 mg/kg/injection, schedule: Q01DX001 (ip), vehicle: acetone 92 % of control

CN1C2CSCC1CC(O)C2 (stereo unspecified)
inactive: endpoint: mean survival time, dose: 37.0 mg/kg/injection, schedule: Q04DX003 (ip), vehicle: other 101 % of control | endpoint: mean survival time, dose: 37.5 mg/kg/injection, schedule: Q01DX009 (ip), vehicle: other 105 % of control | endpoint: mean survival time, dose: 75.0 mg/kg/injection, schedule: Q01DX001 (ip), vehicle: other 102 % of control | endpoint: mean survival time, dose: 75.0 mg/kg/injection, schedule: Q01DX001 (ip), vehicle: saline 103 % of control | endpoint: mean survival time, dose: 75.0 mg/kg/injection, schedule: Q01DX009 (ip), vehicle: other 104 % of control | endpoint: mean survival time, dose: 75.0 mg/kg/injection, schedule: Q04DX003 (ip), vehicle: other 98 % of control | endpoint: mean survival time, dose: 150.0 mg/kg/injection, schedule: Q01DX001 (ip), vehicle: other 93 % of control | endpoint: mean survival time, dose: 150.0 mg/kg/injection, schedule: Q01DX009 (ip), vehicle: other 104 % of control | endpoint: mean survival time, dose: 150.0 mg/kg/injection, schedule: Q04DX003 (ip), vehicle: other 101 % of control
